Literature values as cited in US6458974B1, “Synthesis of β-lapachone and its intermediates” (Cyclis Pharmaceuticals, Inc., priority 2001, dated 2002).

Key:
human cancer cell lines = conditions: single agent, concentrations typically in this range, read-out: antineoplastic activity (IC50)
[1] = system: normal fresh or proliferating human PBMC

In the case of `CC1(C)CCC2=C(O1)c1ccccc1C(=O)C2=O` [β-lapachone, 3,4-dihydro-2,2-dimethyl-2H-naphtho[1,2-b]pyran-5,6-dione], the IC50 (human cancer cell lines) is given as 1 to 10 µM and the cytotoxic effects [1] is given as “No cytotoxic effects”.
